According to patent US20240285571A1, “METHODS OF TREATING BONE INFECTIONS” (MICROBION CORPORATION, priority 2020, published 2024):
Read-outs that look alike come from different tables or passages of the source.

What was measured:
P. aeruginosa = assay: Broth microdilution MIC (Example 5); assay type: cell-based, Pseudomonas aeruginosa; conditions: Pseudomonas aeruginosa
Protocol: (§1) Test and Comparator Agents: The test agents were stored at room temperature until assayed. […] The stock solutions were allowed to stand for at least 1 hr prior to use to auto-sterilize.
(§2) TestMedia: Test media were prepared and stored in accordance with guidelines from CLSI (4, 6, 7).
(§3) Broth Microdilution MC Testing (Aerobic Bacteria and Yeast): The broth microdilution assay method employed for the susceptibility testing of aerobic bacteria (excluding N. gonorrhoeae which was evaluated by agar dilution) and yeast essentially followed the procedures described by CLSI (3, 4, 7, 8) and employed automated liquid handlers to conduct serial dilutions and liquid transfers. […] These would become the ‘mother plates’ from which ‘daughter’ or test plates would be prepared. The drugs (300 μL at 40× the desired top concentration in the test plates) were dispensed into the appropriate well in Column 1 of the mother plates. The Biomek 2000 was used to make serial two-fold dilutions through Column 11 in the “mother plate”. The wells of Column 12 contained no drug and ultimately served as the organism growth control wells.
(§4) The daughter plates were prepared using the Biomek FX which transferred 5 μL of drug solution from each well of a mother plate to the corresponding well of the correct daughter plate in a single step.
(§5) A standardized inoculum of each organism was prepared per CLSI methods (3, 7). Isolated colonies of each test isolate were picked from the primary plate and a suspension was prepared to equal a 0.5 McFarland turbidity standard. Standardized suspensions were then diluted […] (1:100 for yeast, 1:20 for bacteria). After dilution, the inoculum suspensions were then transferred to compartments of sterile reservoirs divided by length (Beckman Coulter), and the Biomek 2000 was used to inoculate all plates. Daughter plates were placed on the Biomek 2000 in reverse orientation so that plates were inoculated from low to high drug concentration.
(§6) The Biomek 2000 delivered 10 μL of standardized inoculum into each well of the appropriate daughter plate for an additional 1:20 dilution.
(§7) Plates were stacked 4 high, covered with a lid on the top plate, placed into plastic bags, and incubated at 35° C. for approximately 24-48 hr for all yeast isolates and 16-24 hr for aerobic bacteria. Plates were viewed from the bottom using a plate viewer. […] MIC endpoints for the test agents and control compounds were read per CLSI criteria (3, 7).

C. tropicalis = assay: Broth microdilution MIC, yeast (Example 5); assay type: cell-based; conditions: Candida tropicalis, FLUR
Protocol: (§8) Test and Comparator Agents: The test agents were stored at room temperature until assayed. All test agents were suspended and diluted in 100% dimethylsulfoxide (DMSO), and were ultimately tested at a final concentration of 0.06-64 μg/mL. The stock solutions were allowed to stand for at least 1 hr prior to use to auto-sterilize.
The susceptibility of yeast isolates was determined by broth microdilution in RPMI medium (HyClone Laboratories, Logan, UT; Lot No. AZC184041B) buffered with 0.165 M MOPS (Calbiochem, Billerica, MA; Lot No. 2694962). The pH of the medium was adjusted to 7.0 with 1 N NaOH, sterile filtered using a 0.2 μm PES filter, and stored at 4° C. until used.
Broth Microdilution MC Testing (Aerobic Bacteria and Yeast): The broth microdilution assay method employed for the susceptibility testing of aerobic bacteria (excluding N. gonorrhoeae which was evaluated by agar dilution) and yeast essentially followed the procedures described by CLSI (3, 4, 7, 8) and employed automated liquid handlers to conduct serial dilutions and liquid transfers. Automated liquid handlers included the Multidrop 384 (Labsystems, Helsinki, Finland) and Biomek 2000 (Beckman Coulter, Fullerton CA). The wells in columns 2-12 in standard 96-well microdilution plates (Costar 3795) were filled with 150 μl of the correct diluent. These would become the ‘mother plates’ from which ‘daughter’ or test plates would be prepared. The drugs (300 μL at 40× the desired top concentration in the test plates) were dispensed into the appropriate well in Column 1 of the mother plates. The Biomek 2000 was used to make serial two-fold dilutions through Column 11 in the “mother plate”. The wells of Column 12 contained no drug and ultimately served as the organism growth control wells.
as §4, with “The daughter plates were loaded with 185 μL per well of the appropriate test media using the Multidrop 384. The” for “The”
as §5
The Biomek 2000 delivered 10 μL of standardized inoculum into each well of the appropriate daughter plate for an additional 1:20 dilution. […] The final concentration of DMSO (if used as a solvent) in the test well was 2.5%.
as §7

S. pneumoniae = assay: Broth microdilution MIC (Example 5); assay type: cell-based; conditions: Streptococcus pneumoniae
In short: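 Susceptibility testing used automated two-fold serial dilution in microdilution plates per CLSI. Each well received a standardized inoculum from a 0.5 McFarland suspension, with an unmedicated column as growth control.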

enterococci = assay: MIC summary, enterococci (Example 5); assay type: cell-based, E. faecalis and E. faecium; conditions: Enterococcus, VRE (Table 5), read-out: MIC values across isolates
Protocol: as §8
TestMedia: Test media were prepared and stored in accordance with guidelines from CLSI (4, 6, 7). […] Neisseria gonorrhoeae were evaluated by agar dilution using agar consisting of GC medium base (BD; Lot No. 4274618) supplemented with 1% IsoVitaleX (BD; Lot No. 5246843).
Broth Microdilution MC Testing (Aerobic Bacteria and Yeast): The broth microdilution assay method employed for the susceptibility testing of aerobic bacteria (excluding N. gonorrhoeae which was evaluated by agar dilution) and yeast essentially followed the procedures described by CLSI (3, 4, 7, 8) and employed automated liquid handlers to conduct serial dilutions and liquid transfers. […]
Plates were stacked 4 high, covered with a lid on the top plate, placed into plastic bags, and incubated at 35° C. for approximately 24-48 hr for all yeast isolates and 16-24 hr for aerobic bacteria. […] MIC endpoints for the test agents and control compounds were read per CLSI criteria (3, 7).

A. baumannii = assay: Broth microdilution MIC (Example 5); assay type: cell-based, Acinetobacter baumannii; conditions: Acinetobacter baumannii
Protocol: as §1, §2, §3, §4, §5, §6, §7

S. aureus (MRSA, MSSA) = assay: MIC of baseline clinical isolates (Example 8); assay type: cell-based; conditions: Staphylococcus aureus, MRSA baseline isolates (N′ = 4), central laboratory, mITT
In short: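 First, Day 1 specimens were taken from infected bone or tissue near implants and from deep and superficial site swabs. Then, sampling was repeated at subsequent index-site procedures.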

[1] = ATCC27853, P. aeruginosa MMX 103 (ATCC 27853), QC, read-out: MIC
[2] = ATCC49619, S. pneumoniae MMX 6837 (ATCC 49619), QC
[3] = S. pneumoniae MMX 880, LevR SXTR CCR EryR PenR
[4] = S. pneumoniae MMX 937, MemR SXTR CCR EryR PenR
[5] = S. pneumoniae MMX 3959, CCR EryR
[6] = S. pneumoniae MMX 5440, MemR SXTR CCR EryR PenR
[7] = S. pneumoniae MMX 5445, MemR SXTR CCR EryR PenR
[8] = S. pneumoniae MMX 8133, MemR SXTR CCR EryR PenR
[9] = A. baumannii MMX 3373, Sensitive, read-out: MIC

SMILES | MIC (P. aeruginosa; [1]) [µg/mL] | MIC (C. tropicalis; 24 h, C. tropicalis MMX 7247) [µg/mL] | MIC (C. tropicalis; 24 h, C. tropicalis MMX 7248) [µg/mL] | MIC (C. tropicalis; 24 h, C. tropicalis MMX 7360) [µg/mL] | MIC (C. tropicalis; 48 h, C. tropicalis MMX 7247) [µg/mL] | MIC (C. tropicalis; 48 h, C. tropicalis MMX 7248) [µg/mL] | MIC (C. tropicalis; 48 h, C. tropicalis MMX 7360) [µg/mL] | MIC (S. pneumoniae; [2]) [µg/mL] | MIC (S. pneumoniae; [3]) [µg/mL] | MIC (S. pneumoniae; [4]) [µg/mL] | MIC (S. pneumoniae; [5]) [µg/mL] | MIC (S. pneumoniae; [6]) [µg/mL] | MIC (S. pneumoniae; [7]) [µg/mL] | MIC (S. pneumoniae; [8]) [µg/mL] | MIC (enterococci) [µg/mL] | MIC (A. baumannii; [9]) [µg/mL] | n (% resistant) (S. aureus (MRSA, MSSA)) | also measured
OCC(S)CS.[Bi] (stereo not shown) [MB-2B, bismuth-2,3-dimercaptopropanol] | 8 | 2 | 4 | 1 | 4 | 4 | 2 | 8 | 8 | 1 | 8 | 8 | 8 | 8 | 2 to 4 | 16 |  | MIC (P. aeruginosa; P. aeruginosa MMX 1381, MDR): 2 µg/mL; MIC (P. aeruginosa; P. aeruginosa MMX 2562, MDR): 4 µg/mL; MIC (P. aeruginosa; P. aeruginosa MMX 3991, MDR): 8 µg/mL; MIC (P. aeruginosa; P. aeruginosa MMX 4654, IMP-7): 8 µg/mL; MIC (P. aeruginosa; P. aeruginosa MMX 4697, VIM-2): 16 µg/mL; MIC (S. pneumoniae; read-out: MIC values across isolates, pneumococci (Table 6)): 1 to 8 µg/mL; MIC (A. baumannii; A. baumannii MMX 2592, MDR): 16 µg/mL; MIC (A. baumannii; A. baumannii MMX 2593, MDR): 16 µg/mL; MIC (A. baumannii; A. baumannii MMX 3372, MDR): 16 µg/mL; MIC (A. baumannii; NCTC13304, A. baumannii MMX 4651 (NCTC 13304), MDR, OXA-27): 16 µg/mL
CC(S)C(C)S.[Bi] (stereo not shown) [MB-6, bismuth-2,3-butanedithiol] | 1 | 4 | 4 | 2 | 4 | 8 | 2 | 0.5 | 0.5 | 8 | 1 | 0.5 | 0.5 | 0.5 | 0.25 to 1 | 0.5 |  | 
C[C@H]1COc2c(N3CCN(C)CC3)c(F)cc3c(=O)c(C(=O)O)cn1c23 [Levofloxacin] |  |  |  |  |  |  |  |  |  |  |  |  |  |  |  |  | 4 (100.0) n (%) | MIC (S. aureus (MRSA, MSSA)): 8 µg/mL
CCC[C@@H]1C[C@@H](C(=O)N[C@@H]([C@H]2O[C@H](SC)[C@H](O)[C@@H](O)[C@H]2O)[C@H](C)Cl)N(C)C1 [CLI] |  |  |  |  |  |  |  |  |  |  |  |  |  |  |  |  | 1 (25.0) n (%) | Mean MIC (S. aureus (MRSA, MSSA)): 4.16 µg/mL
